# Results from patent US8524654B2, “Prolyl endopeptidase inhibitors for reducing or preventing neutrophilic inflammation” (The UAB Research Foundation, priority 2007, dated 2013).
# “Also recorded” adds a separate entry of the source. Residues, ends and D or L forms follow the SMILES beside them. *: point of attachment. Cbz = O=C(OCc1ccccc1)*
# B1: HNE: Recombinant human neutrophil elastase (protein, UniProt P08246 30-267, looked up)
# Neutrophil elastase: IVGGRRARPHAWPFMVSLQLRGGHFCGATLIAPNFVMSAAHCVANVNVRAVRVVLGAHNLSRREPTRQVFAVQRIFENGYDPVNLLNDIVILQLNGSATINANVQVAQLPAQGRRLGNGVQCLAMGWGLLGRNRGIASVLQELNVTVVTSLCRRSNVCTLVRGRQAGVCFGDSGSPLVCNGLIHGIASFVRGGCASGLYPDAFAPVAQFVNWIDSIIQRSEDNPCPHPRDPDPASRTH
# Assays:
# [1] = system: PGP production by CF sputum on type I collagen; experiment: Ex vivo collagen assay: PGP generation by pooled CF sputum with inhibitors; assay type: biochemical, human
# Description: (§1) Electrospray ionization liquid chromatography-MS/MS. (ESI-LC/MS/MS) for PGP detection PGP and N-α-PGP were measured for in vitro and sputum samples using a MDS Sciex (Applied Biosystems, Foster City, Calif.) API-4000 spectrometer equipped with a Shimadzu HPLC. HPLC was done using a 2.1×150-mm Develosi C30 column (with buffer A: 0.1% formic acid, and buffer B: acetonitrile plus 0.1% formic acid); at 0-0.6 min, 80% buffer A/20% buffer B and at 0.6-5 min, the gradient is up to 0% buffer A/100% buffer B. Background was removed by flushing with 100% isopropanol plus 0.1% formic acid. Positive electrospray mass transitions were at 270-70 and 270-116 for PGP and 312-140 and 312-112 for N-α-PGP.
# Ex vivo collagen assay. One hundred microliters of saline-diluted sputum was incubated with extensively dialyzed, intact type I or II collagen (50 μl, 1 mg/ml) for 24 h at 37° C. and 5% CO2. The samples were filtered through a 10-kDa filter, washed with 20 μl of 1 N HCl, and analyzed using ESI-LC-MS/MS for levels of PGP and N-αPGP. Amounts of PGP and N-α-PGP generated by each sputum sample were determined by subtracting basal levels already present in each sample.
# For the inhibitor experiments, these pooled sputa were treated with noted inhibitor and allowed to incubate for 6 h. At 6 h, dialyzed collagen was added to the sample and sample was further incubated for 18 h. Inhibitor concentrations used were: MMP-8, -9, and -2 at 50 μM, PE at 100 μM, and doxycycline at 1 mM.
# neutrophil = conditions: in vitro; cited from earlier work
# [2] = system: PGP production in murine airways; experiment: In vivo murine intratracheal protease administration, PGP in bronchoalveolar lavage fluid; design: species or system BALB/c mice; conditions: 50 μl, lavage 24 h later, ESI LC-MS/MS, vs PBS control
# Description: In vivo PGP production was examined using MMPs or human neutrophil elastase (HNE) with or without PE. Various proteases (50 μl) were administered intratracheally into murine (4- to 6-wk-old BALB/c mice) airways and bronchoalveolar lavage fluid was collected 24 h later. PGP levels were determined using ESI LC-MS/MS. […] Number of mice per group=6.
# as §1
# In vivo murine administration. Mice underwent intratracheal protease administration as described in FIG. 5 legend. MMPs were preactivated using 1 mM aminophenylmercuric acetate for 2 hours at 37° C. The concentrations of proteases administered were: MMP-8, MMP-9, and MMP-12: 55.6 μg/kg; HNE: 200 μg/kg; and PE: 18.4 mg/kg. […]
molecule,measurement,setting,value
"CC(C)(C)C(=O)Oc1ccc(S(=O)(=O)Nc2ccccc2C(=O)NCC(=O)O)cc1 [HNE-specific inhibitor, N-(2-(4-(2,2-dimethylpropionyloxy)phenylsulfonylamino)benzoyl)aminoacetic acid N-(o-(p-pivaloyloxybenzene)sulfonylaminobenzoyl) glycine]",inhibition of PGP production compared with CF sputum alone,"[1]; HNE inhibitor, concentration not given, pooled CF sputum, type I collagen",minimal effects; also recorded: Neither MMP-2-nor HNE-specific inhibitors resulted in significant changes
"CCCCCCCC/C=C\CCCCCCCC(=O)NO [MMP-2-specific inhibitor, cis-9-octadecenoyl-N-hydroxylamide]",inhibition of PGP production compared with CF sputum alone,"[1]; MMP-8, -9, -2 inhibitors at 50 μM, 6 h with pooled CF sputum, then type I collagen, 50 µM",minimal effects; also recorded: Neither MMP-2-nor HNE-specific inhibitors resulted in significant changes
"O=CC1CCCN1C(=O)C1CCCN1C(=O)OCc1ccccc1 (stereo not drawn) [PE inhibitor, Z-prolyl prolinal] (Cbz-Pro-Pro-aldehyde; configuration not given here)",inhibition of PGP production compared with CF sputum alone,"[1]; PE inhibitor at 100 μM, 6 h with pooled CF sputum, then type I collagen, 100 µM",completely blocked; also recorded: complete blockade
proline-glycine-proline [PGP],potency as neutrophil chemoattractant relative to N-α-PGP,neutrophil,four to seven times less potent
B1,PGP production in bronchoalveolar lavage fluid,[2],did not generate PGP
